The record followed here is ChEMBL document CHEMBL1157452, “First synthesis of alpha-aminoalkyl-(N-substituted)thiocarbamoyl-phosphinates: inhibitors of aminopeptidase N (APN/CD13) with the new zinc-binding group” (Bioorg Med Chem Lett, 2008).

This experiment concerns the target T1, Aminopeptidase N (Sus scrofa, UniProt P15145).
T1 sequence (P15145 whole entry): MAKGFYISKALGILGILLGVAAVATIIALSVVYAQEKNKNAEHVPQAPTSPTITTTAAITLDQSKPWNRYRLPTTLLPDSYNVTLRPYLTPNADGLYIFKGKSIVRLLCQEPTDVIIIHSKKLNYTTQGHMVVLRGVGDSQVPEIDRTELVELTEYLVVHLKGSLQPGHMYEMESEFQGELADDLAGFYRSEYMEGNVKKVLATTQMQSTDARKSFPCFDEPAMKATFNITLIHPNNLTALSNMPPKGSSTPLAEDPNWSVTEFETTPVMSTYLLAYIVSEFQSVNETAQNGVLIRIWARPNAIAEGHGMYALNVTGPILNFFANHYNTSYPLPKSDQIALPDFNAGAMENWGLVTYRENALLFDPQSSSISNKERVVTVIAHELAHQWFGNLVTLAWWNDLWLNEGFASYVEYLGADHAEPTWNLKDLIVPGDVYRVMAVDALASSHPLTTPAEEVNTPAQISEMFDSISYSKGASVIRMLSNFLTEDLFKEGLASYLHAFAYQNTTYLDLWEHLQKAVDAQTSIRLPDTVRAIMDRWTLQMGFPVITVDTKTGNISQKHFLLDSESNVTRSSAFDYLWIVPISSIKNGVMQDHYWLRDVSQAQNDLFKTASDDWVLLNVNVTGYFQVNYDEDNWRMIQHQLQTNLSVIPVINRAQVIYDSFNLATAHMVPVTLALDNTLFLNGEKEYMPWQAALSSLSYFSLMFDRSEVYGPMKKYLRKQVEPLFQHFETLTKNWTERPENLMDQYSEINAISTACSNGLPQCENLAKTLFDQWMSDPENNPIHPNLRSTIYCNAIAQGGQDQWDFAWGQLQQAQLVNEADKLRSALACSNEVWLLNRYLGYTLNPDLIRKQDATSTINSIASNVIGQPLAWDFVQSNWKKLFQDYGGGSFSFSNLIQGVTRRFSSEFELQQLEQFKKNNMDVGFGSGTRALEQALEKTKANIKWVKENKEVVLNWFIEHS
Nature of the experiment: Inhibition of pig kidney aminopeptidase N.
With `CCCCCCNC(=S)P(=O)(O)C(N)C(C)C` (configuration not stated), the concentration for half-maximal inhibition (IC50) came to 1180 nM.
The same measure, in the same setting: the figure for `CCCCCCNC(=S)P(=O)(O)C(N)CC(C)C` (configuration not stated) is 500 nM; for `CNC(=S)P(=O)(O)C(N)CC(C)C` (configuration not stated) it is 10600 nM.
Same read-out and setting: the figure for `CC(C)CNC(=S)P(=O)(O)C(N)C(C)C` (configuration not stated) is 1900 nM.
`CCCCC(N)P(=O)(O)C(=S)NCCc1ccccc1` (configuration not stated): the 50% inhibitory concentration (IC50) was determined as 730 nM.
Same read-out and setting: the figure for `COc1ccc(CNC(=S)P(=O)(O)C(N)CCc2ccccc2)cc1` (configuration not stated) is 380 nM; for `CC(N)P(=O)(O)C(=S)NCCc1ccccc1` (configuration not stated) it is 4200 nM.
In turn, `COc1ccc(CNC(=S)P(=O)(O)C(C)N)cc1` (configuration not stated) displayed an IC50 of 1120 nM.
On the same count and under the same terms, to `CCCC(N)P(=O)(O)C(=S)NCc1ccc(OC)cc1` (configuration not stated) belongs 680 nM.
In turn, `CCCCC(N)P(=O)(O)C(=S)NCc1ccc(OC)cc1` (configuration not stated) registered a concentration for half-maximal inhibition (IC50) of 250 nM and a Ki of 143 nM.
In turn, `CCCC(N)P(=O)(O)C(=S)NCCc1ccccc1` (configuration not stated) returned a concentration for half-maximal inhibition (IC50) of 2280 nM.
